Patent publication US20250042881A1, “CCR6 RECEPTOR MODULATORS” (Idorsia Pharmaceuticals Ltd, priority 2021, published 2025)

Target: T1, human CCR6 (Homo sapiens, UniProt P51684)
T1 construct: expressed in transfected cells; host or cells: HEK-293
T1 sequence (P51684 1-374): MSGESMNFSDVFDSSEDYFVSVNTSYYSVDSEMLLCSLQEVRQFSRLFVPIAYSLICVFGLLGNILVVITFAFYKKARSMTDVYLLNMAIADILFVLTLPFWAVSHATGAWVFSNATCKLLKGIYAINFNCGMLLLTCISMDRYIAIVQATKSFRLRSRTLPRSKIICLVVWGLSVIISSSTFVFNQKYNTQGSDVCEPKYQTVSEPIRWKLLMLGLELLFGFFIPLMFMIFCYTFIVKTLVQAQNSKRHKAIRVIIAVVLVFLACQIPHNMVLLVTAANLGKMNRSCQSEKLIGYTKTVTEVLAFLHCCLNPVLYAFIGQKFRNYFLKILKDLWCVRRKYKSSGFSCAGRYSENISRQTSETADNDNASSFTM
Test: FLIPR assay: inhibition of CCL20-induced calcium signal in HEK-293 cells expressing human CCR6
Type: cell-based
Details: engineered HEK-293 cells expressing human CCR6; agonist CCL20 10 nM; 30 min preincubation; Fluo-8-AM; mean values if determined several times
Procedure: FLIPR assay: The bioactivity of compounds is tested in a fluorometric imaging plate reader (FLIPR: Molecular Devices) using engineered HEK-293 cells expressing the human CCR6 (GenBank: AY242126). Frozen cells are plated on Poly-L-Lysine precoated 384-well plates 2 days prior to bioassay in DMEM medium supplemented with 10% FCS and 1% Penicillin-Streptomycin. At the day of bioassay, cell supernatant is discarded and cells are dye loaded for 30 minutes at room temperature in the dark with Fluo-8-AM (Focus Biomolecules) in Hanks Balanced Salt Solution (Gibco), buffered with 20 mM Hepes at pH 6.75 and supplemented with 0.05% BSA. This buffer, but lacking the dye, is also used for washing and compound dilution steps (assay buffer). Cells are washed free of excess dye with a wash-station (Biotek), leaving 40 microliter of assay buffer at the end. Cells were incubated for 15 minutes at room temperature in the dark, before adding compounds. Stock solutions of test compounds are made up at a concentration of 10 mM in DMSO, and serially diluted first in DMSO and then transferred in assay buffer to concentrations required for inhibition dose response curves. After a 45 minute incubation period in assay buffer at room temperature, 10 microliters of each compound dilution are transferred from a compound plate to the plate containing the recombinant cells in the FLIPR instrument according to the manufacturer's instructions. After cells and compounds were preincubated for 30 minutes at room temperature in the dark, 10 microliter agonist CCL20 (Peprotech) at a final concentration of 10 nM is added, again using the FLIPR instrument. Changes in fluorescence are monitored before and after addition of the test compounds and agonist. Emission peak values above base level after CCL20 addition are exported after base line subtraction. The calculated IC50 values may fluctuate depending on the daily assay performance. Fluctuations of this kind are known to those skilled in the art. In the case where IC50 values have been determined several times for the same compound, mean values are given.

Compound | IC50 [nM]
CC(C)c1ccc([C@](O)(c2cncc(-c3nc(C45CCC(C(=O)O)(CC4)CC5)n(C4CC4)n3)c2)C2(C)CN(C)C2)cc1 [Example 13, 4-(2-Cyclopropyl-5-{5-[(R)-(1,3-dimethyl-azetidin-3-yl)-hydroxy-(4-isopropyl-phenyl)-methyl]-pyridin-3-yl}-2H-[1,2,4]triazol-3-yl)-bicyclo[2.2.2]octane-1-carboxylic acid] | 149
CC(C)c1ccc([C@](O)(c2cncc(-c3nc(C4CCOCC4)n(C4CC4)n3)c2)C2(C)CN(C(C)C)C2)cc1 [Example 34, (R)-{5-[1-Cyclopropyl-5-(tetrahydro-pyran-4-yl)-1H-[1,2,4]triazol-3-yl]-pyridin-3-yl}-(1-isopropyl-3-methyl-azetidin-3-yl)-(4-isopropyl-phenyl)-methanol] | 63.8
CC(C)c1ccc([C@](O)(c2cncc(-c3nc(C4(O)CCOCC4)n(C4CC4)n3)c2)C2(C)CN(C)C2)cc1 [Example 30, 4-(2-Cyclopropyl-5-{5-[(R)-(1,3-dimethyl-azetidin-3-yl)-hydroxy-(4-isopropyl-phenyl)-methyl]-pyridin-3-yl}-2H-[1,2,4]triazol-3-yl)-tetrahydro-pyran-4-ol] | 98.1
COC(=O)C12CCC(c3nc(-c4cncc([C@@](O)(c5ccc(C(C)C)cc5)C5(C)CN(C)C5)c4)nn3C3CC3)(CC1)CC2 [Example 10, 4-(2-Cyclopropyl-5-{5-[(R)-(1,3-dimethyl-azetidin-3-yl)-hydroxy-(4-isopropyl-phenyl)-methyl]-pyridin-3-yl}-2H-[1,2,4]triazol-3-yl)-bicyclo[2.2.2]octane-1-carboxylic acid methyl ester] | 43.9

More lines, now with the values ahead:

IC50 [nM] | Compound
202 | Cc1ncc([C@@](O)(c2ccc(C(C)C)cc2)C2(C)CN(C)C2)cc1-c1nc([C@H]2CC[C@H](O)CC2)n(C2CC2)n1 [Example 40, 4-(2-Cyclopropyl-5-{5-[(R)-(1,3-dimethyl-azetidin-3-yl)-hydroxy-(4-isopropyl-phenyl)-methyl]-2-methyl-pyridin-3-yl}-2H-[1,2,4]triazol-3-yl)-trans-cyclohexanol]
170 | COCCn1nc(-c2cncc([C@@](O)(c3ccc(C(C)C)cc3)C3(C)CN(C)C3)c2)nc1C1CCOCC1 [Example 48, (R)-(1,3-Dimethyl-azetidin-3-yl)-(4-isopropyl-phenyl)-{5-[1-(2-methoxy-ethyl)-5-(tetrahydro-pyran-4-yl)-1H-[1,2,4]triazol-3-yl]-pyridin-3-yl}-methanol]
578 | CC(C)c1ccc([C@](O)(c2cnnc(-c3nc(C4CCOCC4)n(C(C)C)n3)c2)C2(C)CN(C)C2)cc1 [Example 51, (R)-(1,3-Dimethyl-azetidin-3-yl)-(4-isopropyl-phenyl)-{6-[1-isopropyl-5-(tetrahydro-pyran-4-yl)-1H-[1,2,4]triazol-3-yl]-pyridazin-4-yl}-methanol]
481 | CC(=O)NCCn1nc(-c2cncc([C@@](O)(c3ccc(C(C)C)cc3)C3(C)CN(C)C3)c2)nc1C1CCOCC1 [Example 50, N-{2-[3-{5-[(R)-(1,3-Dimethyl-azetidin-3-yl)-hydroxy-(4-isopropyl-phenyl)-methyl]-pyridin-3-yl}-5-(tetrahydro-pyran-4-yl)-[1,2,4]triazol-1-yl]-ethyl}-acetamide]
55.8 | CC(C)c1ccc([C@](O)(c2cncc(-c3nc(C4CCOCC4)n(C4CC4)n3)c2)C2(C)CN(C3CC3)C2)cc1 [Example 49, (R)-(1-Cyclopropyl-3-methyl-azetidin-3-yl)-{5-[1-cyclopropyl-5-(tetrahydro-pyran-4-yl)-1H-[1,2,4]triazol-3-yl]-pyridin-3-yl}-(4-isopropyl-phenyl)-methanol]
206 | CC(=O)N1CCC(O)(c2nc(-c3cncc([C@@](O)(c4ccc(C(C)C)cc4)C4(C)CN(C)C4)c3)nn2C(C)C)CC1 [Example 47, 1-[4-(5-{5-[(R)-(1,3-Dimethyl-azetidin-3-yl)-hydroxy-(4-isopropyl-phenyl)-methyl]-pyridin-3-yl}-2-isopropyl-2H-[1,2,4]triazol-3-yl)-4-hydroxy-piperidin-1-yl]-ethanone]
72.6 | CC(C)c1ccc([C@](O)(c2cncc(-c3nc(C4CCOCC4)n(C4CC4)n3)c2)C2(C)CN(CC(F)F)C2)cc1 [Example 35, (R)-{5-[1-Cyclopropyl-5-(tetrahydro-pyran-4-yl)-1H-[1,2,4]triazol-3-yl]-pyridin-3-yl}-[1-(2,2-difluoro-ethyl)-3-methyl-azetidin-3-yl]-(4-isopropyl-phenyl)-methanol]
